Results: EPA's ToxRefDB 2

Legend:
rat [1] = conditions: Fertility (Segment I), Oral, Gavage/Intubation, dose end: 1 generation, group: parental
primate = conditions: Subchronic oral toxicity in nonrodent, Gavage/Intubation, dose end: 91 day, group: systemic, systemic / pathology microscopic / intestine small / erosion
dog [2] = conditions: Sub-acute repeat dose toxicity, beagle, Oral, Gavage/Intubation, dose end: 14 day, group: systemic
rat [3] = conditions: Sub-acute repeat dose toxicity, Oral, Gavage/Intubation, dose end: 14 day, group: systemic
rat [4] = conditions: Sub-acute repeat dose toxicity; wistar; Oral; Gavage/Intubation; dose end: 14 day; group: systemic; systemic / hematology / [other] / [other]
rat [5] = conditions: Subchronic oral toxicity in rodents, Gavage/Intubation, dose end: 91 day, group: systemic
dog [6] = conditions: Subchronic oral toxicity in nonrodent, beagle, Gavage/Intubation, dose end: 91 day, group: systemic
rat [7] = conditions: Chronic toxicity, Oral, Gavage/Intubation, dose end: 182 day, group: systemic
[8] = systemic / in life observation / body weight / body weight + systemic / in life observation / food consumption / food consumption
[9] = systemic / clinical chemistry / [other] / [other] + systemic / clinical chemistry / creatinine / creatinine + systemic / clinical chemistry…
[10] = systemic / in life observation / clinical signs / abnormal feces + systemic / in life observation / food consumption / food consumption + …
[11] = systemic / clinical chemistry / [other] / [other]
[12] = systemic / hematology / leukocyte (wbc) count differential / leukocyte (wbc) + systemic / in life observation / body weight / body weight …
[13] = systemic / clinical chemistry / [other] / [other] + systemic / clinical chemistry / cytochrome p450, nos / cytochrome p450, nos + systemic…
[14] = systemic / in life observation / food consumption / food consumption + systemic / pathology microscopic / kidney / dilatation + systemic / …
[15] = systemic / clinical chemistry / alkaline phosphatase (alp/alk) / alkaline phosphatase (alp/alk) + systemic / clinical chemistry / protein / …
[16] = systemic / pathology microscopic / liver / hypertrophy + systemic / pathology microscopic / brain / infiltration cellular + systemic / …
[17] = systemic / clinical chemistry / albumin / albumin + systemic / clinical chemistry / calcium / calcium + systemic / clinical chemistry / …
[18] = systemic / organ weight / kidney / absolute + systemic / pathology microscopic / intestine small / erosion

`CC(C)(C)c1cc(/C=C2\SC(N)=NC2=O)cc(C(C)(C)C)c1O.CS(=O)(=O)O` [Darbufelone mesylate] was tested, and the LEL (rat [1]; systemic / in life observation / body weight / body weight) was 75 mg/kg/day, the LOAEL (rat [1]; [8]) was over 100 mg/kg/day and the NEL (rat [1]; [8]) was 35 mg/kg/day. For the same molecule, the NOAEL (rat [1]; [8]) was at least 100 mg/kg/day, the LEL (primate) was 10 mg/kg/day and the LOAEL (primate) was over 50 mg/kg/day. For the same molecule, the NEL (primate) was 5 mg/kg/day, the NOAEL (primate) was at least 50 mg/kg/day and the LOAEL (dog [2]; [9]) was over 200 mg/kg/day. The NOAEL (dog [2]; [9]) was at least 200 mg/kg/day, the LEL (dog [2]; [10]) was 10 mg/kg/day and the NEL (dog [2]; [10]) was under 10 mg/kg/day. It also gave an LEL (rat [3]; [11]) of 10 mg/kg/day, an NEL (rat [3]; [11]) of under 10 mg/kg/day and an LOAEL (rat [3]; [12]) of over 1000 mg/kg/day. The NOAEL (rat [3]; [12]) was at least 1000 mg/kg/day, the LEL (rat [4]) was 1 mg/kg/day and the LOAEL (rat [4]) was over 75 mg/kg/day. For the same molecule, the NEL (rat [4]) was under 1 mg/kg/day, the NOAEL (rat [4]) was at least 75 mg/kg/day and the LOAEL (rat [5]; [13]) was over 75 mg/kg/day. The NOAEL (rat [5]; [13]) was at least 75 mg/kg/day, the LEL (rat [5]; [14]) was 10 mg/kg/day and the NEL (rat [5]; [14]) was under 10 mg/kg/day. It also gave an LOAEL (dog [6]; [15]) of over 10 mg/kg/day, an NOAEL (dog [6]; [15]) of at least 10 mg/kg/day and an LEL (dog [6]; [16]) of 2 mg/kg/day. For the same molecule, the NEL (dog [6]; [16]) was under 2 mg/kg/day, the LOAEL (rat [7]; [17]) was over 75 mg/kg/day and the NOAEL (rat [7]; [17]) was at least 75 mg/kg/day. The LEL (rat [7]; [18]) was 5 mg/kg/day and the NEL (rat [7]; [18]) was under 5 mg/kg/day.
